Measured values reported in patent US20090042726A1, “Novel Herbicides” (SYNGENTA LIMITED, priority 2005, published 2009).

Tested on: Monocotyledonous and dicotyledonous test plants
Assay: Herbicidal action, application pre-emergence (Example B1)
Type: in vivo
Parameters: key: 10=total damage to plant; 0=no damage to plant
Details: 1000 g/ha, evaluated after 9 or 13 days; for AGSTE herbicidal action (damage score 0-10): Agrostis-tenius; for AMARE herbicidal action (damage score 0-10): Amaranthus retroflexus; for DIGSA herbicidal action (damage score 0-10): Digitaria sanguinalis; for POATR herbicidal action (damage score 0-10): Poa trivialis; for SETIT herbicidal action (damage score 0-10): Setaria italica
Protocol: Monocotyledonous and dicotyledonous test plants were sown in sterilised standard soil in seed trays each having 96 cells. After one day (pre-emergence) under controlled conditions in a climatic chamber (cultivation at 23/17° C., day/night; 13 hours light; 50-60% humidity; after application at 24/19° C., day/night), the plants were treated with an aqueous spray solution of 1000 mg/l of the active ingredient used (including 10% DMSO as solvent). The plants were grown on in the climatic chamber until the test was evaluated (10=total damage to plant, 0=no damage to plant) after 9 or 13 days.

Row | SMILES | AGSTE herbicidal action (damage score 0-10) | AMARE herbicidal action (damage score 0-10) | DIGSA herbicidal action (damage score 0-10) | POATR herbicidal action (damage score 0-10) | SETIT herbicidal action (damage score 0-10)
1 | Cn1nc(C(F)(F)F)c(CS(=O)(=O)C2=NOC(C)(C)C2F)c1F (stereo not drawn) [2.56] | 10 | 10 | 10 | 10 | –
2 | Cn1nc(OC(F)F)cc1CS(=O)(=O)C1=NOC(C)(C)C1F (stereo not drawn) [6.10] | 10 | 7 | 0 | 9 | –
3 | Cn1nc(C(F)(F)F)c(C[S+]([O-])C2=NOC(C)(C)C2F)c1OCC(F)(F)F (single isomer, unassigned) [2.09] | 10 | 9 | 9 | 10 | 10
4 | CC1(C)ON=C([S+]([O-])Cc2cccnc2Cl)C1F (mixture of isomers) [3.05] | 9 | 10 | 8 | 10 | –
5 | Cn1nc(C[S+]([O-])C2=NOC(C)(C)C2F)c(C(F)(F)F)c1C#N (single isomer, unassigned) [4.07] | 10 | 9 | 9 | 10 | –
6 | Cn1nc(C(F)(F)F)cc1CS(=O)(=O)C1=NOC(C)(C)C1F (stereo not drawn) [6.04] | 10 | 9 | 9 | 10 | –
7 | Cn1nc(C(F)(F)F)c(CSC2=NOC(C)(C)C2F)c1F (stereo not drawn) [Compound No. 2.54] | 10 | 9 | 6 | 10 | –
8 | Cn1nnc(Br)c1CS(=O)(=O)C1=NOC(C)(C)C1F (stereo not drawn) [11.03] | 10 | 3 | 9 | 10 | –
9 | Cn1nc(C(F)(F)F)c(C[S+]([O-])C2=NOC(C)(C)C2F)c1OCC(F)(F)F (single isomer, unassigned) [2.10] | 10 | 8 | 10 | 10 | 9
10 | Cn1nc(CS(=O)(=O)C2=NOC(C)(C)C2F)c(C(F)(F)F)c1C#N (stereo not drawn) [4.09] | 10 | 9 | 7 | 4 | –
11 | Cn1nc(C(F)(F)F)c(C[S+]([O-])C2=NOC(C)(C)C2Cl)c1OC(F)F (mixture of isomers) [2.17] | 10 | 6 | 10 | 10 | 9
12 | Cn1nc(C(F)(F)F)c(CSC2=NOC(C)(C)C2F)c1OC(F)F (stereo not drawn) [Compound No. 2.22] | 10 | 9 | 9 | 9 | 9
13 | CC(C)n1nc(CS(=O)(=O)C2=NOC(C)(C)C2F)c(C(F)(F)F)n1 (stereo not drawn) [7.27] | 9 | 1 | 10 | 0 | –
14 | CCn1ncc(CS(=O)(=O)C2=NOC(C)(C)C2F)n1 (stereo not drawn) [7.36] | 9 | 8 | 9 | 10 | –
15 | Cn1cc(C(F)(F)F)c(CS(=O)(=O)C2=NOC(C)(C)C2F)n1 (stereo not drawn) [4.03, 3-(4-fluoro-5,5-dimethyl-4,5-dihydro-isoxazol-3-ylsulfonylmethyl)-1-methyl-4-trifluoromethyl-1H-pyrazole] | 10 | 8 | 10 | 10 | 7
16 | COc1ncc(C[S+]([O-])C2=NOC(C)(C)C2F)c(C(F)(F)F)n1 (stereo not drawn) [5.02] | 10 | 10 | 10 | 10 | –
17 | CC1(C)ON=C([S+]([O-])Cc2c(F)cccc2F)C1F (single isomer, unassigned) [1.16] | 10 | 8 | 10 | 10 | 6
18 | Cc1nn(C)nc1C[S+]([O-])C1=NOC(C)(C)C1F (single isomer, unassigned) [7.02] | 10 | 0 | 9 | 10 | 9
19 | CCn1cc(CS(=O)(=O)C2=NOC(C)(C)C2F)c(C(F)(F)F)n1 (stereo not drawn) [2.47] | 10 | 10 | 9 | 10 | –
20 | CCc1nn(C)nc1CS(=O)(=O)C1=NOC(C)(C)C1F (stereo not drawn) [7.33] | 10 | 10 | 10 | 10 | –
21 | C=CCn1cc(CS(=O)(=O)C2=NOC(C)(C)C2F)c(C(F)(F)F)n1 (stereo not drawn) [2.53] | 10 | 10 | 9 | 10 | –
22 | COCCn1nc(CSC2=NOC(C)(C)C2F)c(C(F)(F)F)n1 (stereo not drawn) [Compound No. 7.18] | 7 | 8 | 8 | 0 | –
23 | CC1(C)ON=C([S+]([O-])Cc2nn(C3CCCC3)nc2C(F)(F)F)C1F (mixture of isomers) [7.13] | 10 | 4 | 9 | 8 | –
24 | CC1(C)ON=C(S(=O)(=O)Cc2cccnc2Cl)C1F (stereo not drawn) [3.06] | 10 | 8 | 0 | 10 | –
25 | CCn1ncc(C[S+]([O-])C2=NOC(C)(C)C2F)n1 (mixture of isomers) [7.35] | 10 | 8 | 9 | 9 | –
26 | Cn1nc(C(F)(F)F)c(Cl)c1CSC1=NOC(C)(C)C1F (stereo not drawn) [Compound No. 6.05] | 10 | 0 | 5 | 4 | –
